Measurements as given in patent US4450269A, “Mono-5-substituted-3-chloro-4H-1,2,6-thiadiazin-4-one antifungal agents” (FMC Corporation, priority 1980, dated 1984).

Experiments:
Cladosporium cucumerinum = experiment: Spore germination test; type: cell-based; details: CC, 48 hours
In short: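 Compound in acetone mixed into water agar at 40, 10, 2.5 and 1 ppm; plates seeded with spore suspension and incubated 48 hours at 24 °C. Percentage germinated spores counted and converted into a germination rating.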

Erysiphe polygoni = experiment: whole plant or invertebrate; details: foliar, 24 h, read-out: Percent Disease Control, curative, bean powdery mildew
Rhizoctonia solani = experiment: Mycelial growth test; type: cell-based; details: Rhizoctonia solani, 72 h, RS, read-out: Percent Fungus Growth Inhibition
Excerpt: | RS = Rhizoctonia solani

`O=c1c(Cl)nsnc1Oc1ccc(F)cc1` [Compound 11, 3-chloro-5-(4-fluorophenoxy)-4H--1,2,6-thiadiazin-4-one] was tested, and the “Spore Germination Rating” value (Cladosporium cucumerinum; 1.0 ppm) was 0 (0-10), the “Spore Germination Rating” value (Cladosporium cucumerinum; 2.5 ppm) was 0 (0-10) and the “Spore Germination Rating” value (Cladosporium cucumerinum; 10 ppm) was 0 (0-10). For the same molecule, the “Spore Germination Rating” value (Cladosporium cucumerinum; 40 ppm) was 0 (0-10), the pest or weed control at 150 ppm (Erysiphe polygoni) was 100% and the inhibition at 5 ppm (Rhizoctonia solani) was 0%. For the same molecule, the inhibition at 10 ppm (Rhizoctonia solani) was 38%, the inhibition at 20 ppm (Rhizoctonia solani) was 76% and the inhibition at 40 ppm (Rhizoctonia solani) was 91%.
With `CC(=O)c1cccc(Oc2nsnc(Cl)c2=O)c1` [Compound 48, 3-(3-acetylphenoxy)-5-chloro-4H--1,2,6-thiadiazin-4-one] the “Spore Germination Rating” value (Cladosporium cucumerinum; 1.0 ppm) was 0 (0-10), the “Spore Germination Rating” value (Cladosporium cucumerinum; 2.5 ppm) was 0 (0-10) and the “Spore Germination Rating” value (Cladosporium cucumerinum; 10 ppm) was 0 (0-10). The “Spore Germination Rating” value (Cladosporium cucumerinum; 40 ppm) was 0 (0-10), the pest or weed control at 150 ppm (Erysiphe polygoni) was 0% and the inhibition at 5 ppm (Rhizoctonia solani) was 64%. For the same molecule, the inhibition at 10 ppm (Rhizoctonia solani) was 24%, the inhibition at 20 ppm (Rhizoctonia solani) was 64% and the inhibition at 40 ppm (Rhizoctonia solani) was 76%.
In the case of `Cc1cc(Cl)ccc1Oc1nsnc(Cl)c1=O` [Compound 55, 3-chloro-5-(4-chloro-2-methylphenoxy)-4H--1,2,6-thiadiazin-4-one], the “Spore Germination Rating” value (Cladosporium cucumerinum; 1.0 ppm) is reported as 2 (40-60), the “Spore Germination Rating” value (Cladosporium cucumerinum; 2.5 ppm) is reported as 1 (10-40) and the “Spore Germination Rating” value (Cladosporium cucumerinum; 10 ppm) is reported as 0 (0-10). The “Spore Germination Rating” value (Cladosporium cucumerinum; 40 ppm) was 0 (0-10), the pest or weed control at 150 ppm (Erysiphe polygoni) was 50% and the inhibition at 5 ppm (Rhizoctonia solani) was 33%. It also gave an inhibition at 10 ppm (Rhizoctonia solani) of 56%, an inhibition at 20 ppm (Rhizoctonia solani) of 31% and an inhibition at 40 ppm (Rhizoctonia solani) of 53%.
With `Cc1cc(Oc2nsnc(Cl)c2=O)cc(C)c1Cl` [Compound 59, 3-chloro-5-[(4-chloro-3,5-dimethyl)phenoxy]-4H--1,2,6-thiadiazin-4-one] the “Spore Germination Rating” value (Cladosporium cucumerinum; 1.0 ppm) was 1 (10-40), the “Spore Germination Rating” value (Cladosporium cucumerinum; 2.5 ppm) was 0 (0-10) and the “Spore Germination Rating” value (Cladosporium cucumerinum; 10 ppm) was 0 (0-10). The “Spore Germination Rating” value (Cladosporium cucumerinum; 40 ppm) was 0 (0-10), the inhibition at 5 ppm (Rhizoctonia solani) was 33% and the inhibition at 10 ppm (Rhizoctonia solani) was 24%. It also gave an inhibition at 20 ppm (Rhizoctonia solani) of 33% and an inhibition at 40 ppm (Rhizoctonia solani) of 69%.
In the case of `CC(=O)c1ccc(Oc2nsnc(Cl)c2=O)cc1` [Compound 47, 3-(4-acetylphenoxy)-5-chloro-4H--1,2,6-thiadiazin-4-one], the “Spore Germination Rating” value (Cladosporium cucumerinum; 1.0 ppm) is reported as 0 (0-10), the “Spore Germination Rating” value (Cladosporium cucumerinum; 2.5 ppm) is reported as 0 (0-10) and the “Spore Germination Rating” value (Cladosporium cucumerinum; 10 ppm) is reported as 0 (0-10). The “Spore Germination Rating” value (Cladosporium cucumerinum; 40 ppm) was 0 (0-10), the pest or weed control at 150 ppm (Erysiphe polygoni) was 0% and the inhibition at 5 ppm (Rhizoctonia solani) was 58%. For the same molecule, the inhibition at 10 ppm (Rhizoctonia solani) was 47%, the inhibition at 20 ppm (Rhizoctonia solani) was 69% and the inhibition at 40 ppm (Rhizoctonia solani) was 78%.
`Cc1ccc(Oc2nsnc(Cl)c2=O)cc1` [Compound 3, 3-chloro-5-(4-methylphenoxy)-4H--1,2,6-thiadiazin-4-one] was tested, and the “Spore Germination Rating” value (Cladosporium cucumerinum; 1.0 ppm) was 4 (80-100), the “Spore Germination Rating” value (Cladosporium cucumerinum; 2.5 ppm) was 4 (80-100) and the “Spore Germination Rating” value (Cladosporium cucumerinum; 10 ppm) was 0 (0-10). For the same molecule, the “Spore Germination Rating” value (Cladosporium cucumerinum; 40 ppm) was 0 (0-10), the pest or weed control at 150 ppm (Erysiphe polygoni) was 0% and the inhibition at 5 ppm (Rhizoctonia solani) was 0%. For the same molecule, the inhibition at 10 ppm (Rhizoctonia solani) was 20%, the inhibition at 20 ppm (Rhizoctonia solani) was 56% and the inhibition at 40 ppm (Rhizoctonia solani) was 100%.
`O=c1c(Cl)nsnc1Oc1c(Cl)cc(Cl)cc1Cl` [Compound 30, 3-chloro-5-(2,4,6-trichlorophenoxy)-4H--1,2,6-thiadiazin-4-one] was tested, and the “Spore Germination Rating” value (Cladosporium cucumerinum; 1.0 ppm) was 0 (0-10), the “Spore Germination Rating” value (Cladosporium cucumerinum; 2.5 ppm) was 0 (0-10) and the “Spore Germination Rating” value (Cladosporium cucumerinum; 10 ppm) was 0 (0-10). The “Spore Germination Rating” value (Cladosporium cucumerinum; 40 ppm) was 0 (0-10), the pest or weed control at 150 ppm (Erysiphe polygoni) was 100% and the inhibition at 5 ppm (Rhizoctonia solani) was 42%. The inhibition at 10 ppm (Rhizoctonia solani) was 62%, the inhibition at 20 ppm (Rhizoctonia solani) was 69% and the inhibition at 40 ppm (Rhizoctonia solani) was 80%.
With `CC(=O)c1ccccc1Oc1nsnc(Cl)c1=O` [Compound 49, 3-(2-acetylphenoxy)-5-chloro-4H--1,2,6-thiadiazin-4-one] the “Spore Germination Rating” value (Cladosporium cucumerinum; 1.0 ppm) was 0 (0-10), the “Spore Germination Rating” value (Cladosporium cucumerinum; 2.5 ppm) was 0 (0-10) and the “Spore Germination Rating” value (Cladosporium cucumerinum; 10 ppm) was 0 (0-10). For the same molecule, the “Spore Germination Rating” value (Cladosporium cucumerinum; 40 ppm) was 0 (0-10), the pest or weed control at 150 ppm (Erysiphe polygoni) was 0% and the inhibition at 5 ppm (Rhizoctonia solani) was 9%. The inhibition at 10 ppm (Rhizoctonia solani) was 24%, the inhibition at 20 ppm (Rhizoctonia solani) was 42% and the inhibition at 40 ppm (Rhizoctonia solani) was 64%.
`O=c1c(Cl)nsnc1Oc1ccc(Cl)c(Cl)c1` [Compound 16, 3-chloro-5-(3,4-dichlorophenoxy)-4H--1,2,6-thiadiazin-4-one] was tested, and the “Spore Germination Rating” value (Cladosporium cucumerinum; 1.0 ppm) was 0 (0-10), the “Spore Germination Rating” value (Cladosporium cucumerinum; 2.5 ppm) was 0 (0-10) and the “Spore Germination Rating” value (Cladosporium cucumerinum; 10 ppm) was 0 (0-10). The “Spore Germination Rating” value (Cladosporium cucumerinum; 40 ppm) was 0 (0-10), the pest or weed control at 150 ppm (Erysiphe polygoni) was 0% and the inhibition at 5 ppm (Rhizoctonia solani) was 29%. For the same molecule, the inhibition at 10 ppm (Rhizoctonia solani) was 31%, the inhibition at 20 ppm (Rhizoctonia solani) was 31% and the inhibition at 40 ppm (Rhizoctonia solani) was 69%.
In the case of `COc1ccc(Cl)c(Oc2nsnc(Cl)c2=O)c1` [Compound 51, 3-chloro-5-[(2-chloro-5-methoxy)phenoxy]-4H--1,2,6-thiadiazin-4-one], the “Spore Germination Rating” value (Cladosporium cucumerinum; 1.0 ppm) is reported as 3 (60-80), the “Spore Germination Rating” value (Cladosporium cucumerinum; 2.5 ppm) is reported as 0 (0-10) and the “Spore Germination Rating” value (Cladosporium cucumerinum; 10 ppm) is reported as 0 (0-10). For the same molecule, the “Spore Germination Rating” value (Cladosporium cucumerinum; 40 ppm) was 0 (0-10), the pest or weed control at 150 ppm (Erysiphe polygoni) was 0% and the inhibition at 5 ppm (Rhizoctonia solani) was 20%. For the same molecule, the inhibition at 10 ppm (Rhizoctonia solani) was 56%, the inhibition at 20 ppm (Rhizoctonia solani) was 82% and the inhibition at 40 ppm (Rhizoctonia solani) was 100%.
`CC(C)(C)c1ccc(Oc2nsnc(Cl)c2=O)cc1` [Compound 4, 3-chloro-5-(4-tert-butylphnoxy)-4H--1,2,6-thiadiazin-4-one] was tested, and the “Spore Germination Rating” value (Cladosporium cucumerinum; 1.0 ppm) was 4 (80-100), the “Spore Germination Rating” value (Cladosporium cucumerinum; 2.5 ppm) was 4 (80-100) and the “Spore Germination Rating” value (Cladosporium cucumerinum; 10 ppm) was 0 (0-10). For the same molecule, the “Spore Germination Rating” value (Cladosporium cucumerinum; 40 ppm) was 0 (0-10), the pest or weed control at 150 ppm (Erysiphe polygoni) was 100% and the inhibition at 5 ppm (Rhizoctonia solani) was 0%. It also gave an inhibition at 10 ppm (Rhizoctonia solani) of 0%, an inhibition at 20 ppm (Rhizoctonia solani) of 0% and an inhibition at 40 ppm (Rhizoctonia solani) of 0%.
`CCOC(=O)c1ccc(Oc2nsnc(Cl)c2=O)cc1` [Compound 7, 3-chloro-5-(4-ethoxycarbonylphenoxy)-4H--1,2,6-thiadiazin-4-one] was tested, and the “Spore Germination Rating” value (Cladosporium cucumerinum; 1.0 ppm) was 0 (0-10), the “Spore Germination Rating” value (Cladosporium cucumerinum; 2.5 ppm) was 0 (0-10) and the “Spore Germination Rating” value (Cladosporium cucumerinum; 10 ppm) was 0 (0-10). The “Spore Germination Rating” value (Cladosporium cucumerinum; 40 ppm) was 1 (10-40), the pest or weed control at 150 ppm (Erysiphe polygoni) was 0% and the inhibition at 5 ppm (Rhizoctonia solani) was 7%. It also gave an inhibition at 10 ppm (Rhizoctonia solani) of 33%, an inhibition at 20 ppm (Rhizoctonia solani) of 53% and an inhibition at 40 ppm (Rhizoctonia solani) of 76%.
